{"source": "patent US20250127702A1", "about": "“SUNSCREEN COMPOSITION WITH CRYSTALLINE ORGANIC SUNSCREEN FILTERS” (Edgewell Personal Care Brands, LLC, priority 2021, published 2025)", "test": "Amount of solvent needed to solubilize crystalline sunscreen filters", "format": "physicochemical", "settings": "solvent: butyloctyl salicylate, capric/caprylic triglyceride", "description": "This is unexpected since it theoretically takes at least 37 g of the solvent combination to solvate 3 g of bis-ethylhexyloxyphenol methoxyphenyl triazine (a filter that is harder to solubilize than even avobenzone). Similarly, the theoretical amount of octocrylene, homosalate, octisalate, octinoxate, ethylhexyl benzoate and C12-C15 alkyl benzoate to solvate 3 g of bis-ethylhexyloxyphenol methoxyphenyl triazine is 21 g. […] Additional benefits from relatively less solvent content, such as migration benefits, are discussed below.\nThis is unexpected since it theoretically takes at least 37 g of the solvent combination to solvate 3 g of bis-ethylhexyloxyphenol methoxyphenyl triazine (a filter that is harder to solubilize than even avobenzone) and 42.8 g of the solvent combination to solvate 15.5 g of the crystalline filter combination.", "data": [{"smiles": "CCCCC(CC)COc1ccc(-c2nc(-c3ccc(OC)cc3)nc(-c3ccc(OCC(CC)CCCC)cc3O)n2)c(O)c1", "note": "(centres unmarked) [bis-ethylhexyloxyphenol methoxyphenyl triazine]", "values": [{"measurement": "theoretical amount of the solvent combination to solvate 3 g", "setting": "diisobutyl adipate, diethylhexyl maleate, butyl maleate, butyl oleate, isopropyl myristate", "result": "at least 37 g"}, {"measurement": "theoretical amount of the solvent combination to solvate 3 g", "setting": "dibutyl adipate and/or diisopropyl adipate", "result": "at least 37 g"}]}]}
